From US7368578B2, “Five-membered heterocyclic compounds” (Takeda Pharmaceutical Company Limited, priority 2002, dated 2008)

Molecular target: T1, human PPARγ1 (Homo sapiens, UniProt P37231)
T1 construct: made in house; host or cells: COS-1 cells transiently transfected with pMCMVneo-hPPARγ; crude supernatant of the lysate, not purified
T1 sequence (P37231 1-477 isoform P37231-2): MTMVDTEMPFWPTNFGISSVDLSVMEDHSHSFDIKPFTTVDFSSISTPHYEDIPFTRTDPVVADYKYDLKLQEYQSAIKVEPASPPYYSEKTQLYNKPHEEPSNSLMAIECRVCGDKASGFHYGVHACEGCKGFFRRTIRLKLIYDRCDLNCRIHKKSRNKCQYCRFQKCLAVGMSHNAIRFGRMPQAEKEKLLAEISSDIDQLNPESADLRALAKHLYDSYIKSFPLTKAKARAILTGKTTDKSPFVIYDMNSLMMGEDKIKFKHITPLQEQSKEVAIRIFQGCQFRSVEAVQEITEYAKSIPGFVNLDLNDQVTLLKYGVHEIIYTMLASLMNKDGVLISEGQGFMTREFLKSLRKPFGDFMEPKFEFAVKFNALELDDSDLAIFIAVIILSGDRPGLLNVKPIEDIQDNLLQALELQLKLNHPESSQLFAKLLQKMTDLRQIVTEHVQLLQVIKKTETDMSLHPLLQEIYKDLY
Test: Measurement of human PPARγ1 binding activity ([3H]-compound A displacement)
Settings: cell extract with 1.5 μg/ml full length hPPARγ1, 20 nM [3H]-compound A, 4° C., 16 hrs
Protocol: A cell extract containing 1.5 μg/ml of full length hPPARγ1 prepared in Reference Example 7a, 20 nM [^3H]-compound A (16 Ci/mmol)(Amersham Pharmacia Biotech) and a test compound were reacted in TEGM buffer at 4° C. for 16 hrs. To the reaction mixture was added activated carbon (Sigma) coated with 140 μl of dextran (Amersham Pharmacia Biotech) and gelatin (Sigma), and the mixture was left standing at 4° C. for 10 min and centrifuged at 910×g for 10 min. After centrifugation, the radioactivity of 30 μl of supernatant was measured with Topcount (Packard). In addition, a test similar to the above was conducted for the non-use of the aforementioned test compound and for the use of 100 μM of compound A instead of the aforementioned test compound, and the radioactivity was determined.
The human PPARγ1 binding activity of the test compound was evaluated using percentages wherein the measured value of the radioactivity when 20 nM [^3H]-compound A alone was added was 100%, and the measured value of the radioactivity when 20 nM [^3H]-compound A and 100 μM of compound A were simultaneously added was 0%. Moreover, the IC50 value of the test compound was calculated based on the analysis of the compound concentration and the percentage using PRISM3.0 (Graph Pad, Inc.).
COS-1 cells were seeded in a 150 cm^2 tissue culture flask (Corning Inc.) at 5×10^6 cells, and cultured under 37° C. 5% CO2 conditions for 24 hrs. Transfection was performed using lipofectamine (GIBCO BRL). To be specific, 125 μl of lipofectamine, 100 μl of PLUS Reagent and 15 μg of hPPARγ expression plasmid (plasmid pMCMVneo-hPPARγ obtained in Reference Example 6a) were mixed with opti-MEM (GIBCO BRL) to give a transfection mixture. The transfection mixture (25 ml) was added to COS-1 cells and the cells were cultured under 37° C. 5% CO2 conditions for 3 hrs. Then 25 ml of DMEM medium (Nikken Biomedical Laboratory) containing 10% FCS treated with activated carbon (Sigma) was added to the cells and the cells were cultured under 37° C. 5% CO2 conditions. After 24 hrs., the medium was substituted with 50 ml of DMEM medium (Nikken Biomedical Laboratory) containing 5% FCS treated with activated carbon, and the cells were cultured under 37° C., 5% CO2 conditions. After 48 hrs, the transfected cells were recovered and washed with TEG buffer (10 mM Tris-HCl (pH 7.2), 50 mM EDTA, 10% glycerol). The cells were suspended in 1 ml TEGM buffer (10 mM Tris-HCl (pH 7.2), 1 mM EDTA, 10% glycerol, 7 μl/100 ml β-mercaptoethanol, 10 mM Na molybdate, 1 mM dithiothreitol, 2 tablets/100 ml Protease inhibitor Cocktail tablets (Boehringer Mannheim)) and, for cell lysis, frozen with liquid nitrogen and thawed on ice. To remove the debris of the cells, the extract was centrifuged at 228,000×g, 4° C. for 20 min. and the supernatant was preserved at −80° C. until use.

IC50	SMILES
1100 nM	Cc1oc(-c2ccco2)nc1COc1ccc(COc2nn(Cc3ccccc3)cc2C=O)cn1 [Example 42, 1-benzyl-3-[(6-{[2-(2-furyl)-5-methyl-1,3-oxazol-4-yl]methoxy}-3-pyridinyl)methoxy]-1H-pyrazole-4-carbaldehyde]
770 nM	CCOC(=O)c1cn(-c2ccccc2)nc1OCc1ccc(OCc2nc(-c3ccco3)oc2C)c(OC)c1 [Example 72, ethyl 3-[(4-{[2-(2-furyl)-5-methyl-1,3-oxazol-4-yl]methoxy}-3-methoxybenzyl)oxy]-1-phenyl-1H-pyrazole-4-carboxylate]
79 nM	COc1cc(COc2nn(-c3ccccc3)cc2C#N)ccc1OCc1nc(-c2ccco2)oc1C [Example 77, 3-[(4-{[2-(2-furyl)-5-methyl-1,3-oxazol-4-yl]methoxy)-3-methoxybenzyl)oxy]-1-phenyl-1H-pyrazole-4-carbonitrile]
80 nM	COc1cc(COc2nn(-c3ccccc3)cc2/C=C/P(=O)(OC(C)C)OC(C)C)ccc1OCc1nc(-c2ccco2)oc1C [Example 145, diisopropyl (E)-2-{3-[(4-{[2-(2-furyl)-5-methyl-1,3-oxazol-4-yl]methoxy}-3-methoxybenzyl)oxy]-1-phenyl-1H-pyrazol-4-yl}ethenylphosphonate]

Continued, compound first:

SMILES	IC50
COc1cc(COc2nn(-c3ccccc3)cc2CO)ccc1OCc1nc(-c2ccco2)oc1C [Example 75, {3-[(4-{[2-(2-furyl)-5-methyl-1,3-oxazol-4-yl]methoxy}-3-methoxybenzyl)oxy]-1-phenyl-1H-pyrazol-4-yl}methanol]	660 nM
COc1cc(COc2nn(-c3ccccc3)cc2C=O)ccc1OCc1nc(-c2ccco2)oc1C [Example 76, 3-[(4-{[2-(2-furyl)-5-methyl-1,3-oxazol-4-yl]methoxy}-3-methoxybenzyl)oxy]-1-phenyl-1H-pyrazole-4-carbaldehyde]	190 nM
CCOP(=O)(CCc1cn(-c2ccccc2)nc1OCc1ccc(OCc2nc(-c3ccco3)oc2C)c(OC)c1)OCC [Example 100, diethyl 2-{3-[(4-{[2-(2-furyl)-5-methyl-1,3-oxazol-4-yl]methoxy}-3-methoxybenzyl)oxy]-1-phenyl-1H-pyrazol-4-yl}ethylphosphonate]	210 nM
CCOP(=O)(/C=C/c1cn(-c2ccccc2)nc1OCc1ccc(OCc2nc(-c3ccco3)oc2C)c(OC)c1)OCC [Example 116 (E form), diethyl (E)-2-{3-[(4-{[2-(2-furyl)-5-methyl-1,3-oxazol-4-yl]methoxy}-3-methoxybenzyl)oxy]-1-phenyl-1H-pyrazol-4-yl}ethenylphosphonate]	39 nM
CCOP(=O)(/C=C/c1cn(-c2ccccc2)nc1OCc1ccc(OCc2nc(-c3ccccc3)oc2C)c(OC)c1)OCC [Example 146, diethyl (E)-2-[3-({3-methoxy-4-[(5-methyl-2-phenyl-1,3-oxazol-4-yl)methoxy]benzyl}oxy)-1-phenyl-1H-pyrazol-4-yl]ethenylphosphonate]	68 nM
COc1cc(COc2nn(-c3ccccc3)cc2/C=C/c2csc(C)n2)ccc1OCc1nc(-c2ccco2)oc1C [Example 150 (E form), 2-(2-furyl)-4-({2-methoxy-4-[({4-[(E)-2-(2-methyl-1,3-thiazol-4-yl)ethenyl]-1-phenyl-1H-pyrazol-3-yl}oxy)methyl]phenoxy}methyl)-5-methyl-1,3-oxazole]	50 nM
CCC(=O)/C=C/c1cn(-c2ccccc2)nc1OCc1ccc(OCc2nc(-c3ccco3)oc2C)c(OC)c1 [Example 156, (1E)-1-{3-[(4-{[2-(2-furyl)-5-methyl-1,3-oxazol-4-yl]methoxy}-3-methoxybenzyl)oxy]-1-phenyl-1H-pyrazol-4-yl}-1-penten-3-one]	7300 nM
CCOP(=O)(/C=C/c1cn(-c2ccccc2)nc1OCc1ccc(OCc2csc(N3CCOCC3)n2)c(OC)c1)OCC [Example 191, diethyl (E)-2-{3-[(3-methoxy-4-{[2-(morpholin-4-yl)-1,3-thiazol-4-yl]methoxy}benzyl)oxy]-1-phenyl-1H-pyrazol-4-yl}ethenylphosphonate]	810 nM
